From patent US11344510B2, “Arylcyclohexylamine derivatives and their use in the treatment of psychiatric disorders” (Gilgamesh Pharmaceuticals, Inc., priority 2019, dated 2022)
Where a name gives a salt, the structure may show the parent alone. Read-outs that look alike come from different tables or passages of the source.

What was measured:
[1] = HLM stability (High Activity); assay type: in vitro ADME; settings: both sexes, human, liver microsomes, pH 7.4, Condition 2 (High Activity), 1.0 mg protein/mL
Summary of the method: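 Pooled male and female human liver microsomes, 1.0 mg protein/mL, in 100 mM PBS pH 7.4 with NADPH-regenerating system; compound 1 μM at 37° C, five time points over 60 min. Parent remaining by LC-MS/MS; kel, t1/2 and Clint from linear regression of ln(AUC) versus time.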

[2] = RLM stability (High Activity); assay type: in vitro ADME, Sprague Dawley rats; settings: for half-life at 1 μM / microsomal CLint at 1 μM: male, Sprague Dawley, rat, liver microsomes, pH 7.4, Condition 2 (High Activity), 1.0 mg protein/mL
Protocol: RLM Stability (High Activity). Pooled RLM from male Sprague Dawley rats (XenoTech R1000, lot #1910100) were used. Microsomal incubations were carried out in 96-well plates in 5 aliquots of 40 μL each (one for each time point). Liver microsomal incubation medium consisted of PBS (100 mM, pH 7.4), MgCl2 (3.3 mM), NADPH (3 mM), glucose-6-phosphate (5.3 mM), and glucose-6-phosphate dehydrogenase (0.67 units/mL), with 1.0 mg of liver microsomal protein per mL. Control incubations were performed by replacing the NADPH-cofactor system with PBS. Test compounds (1 μM, final solvent concentration 1.6%) were incubated with microsomes at 37° C., shaking at 100 rpm. Incubations were performed in duplicate. Five time points over 60 minutes were analyzed. The reactions were stopped by adding 9 volumes of 90% acetonitrile-water to incubation aliquots, followed by protein sedimentation by centrifugation at 5500 rpm for 3 minutes. Supernatants were analyzed for parent compound remaining using a fit-for-purpose liquid chromatography-tandem mass spectrometry (LC-MS/MS) method, with authentic samples of each analyte used for identity confirmation.
Data Analysis. The elimination constant (kel), half-life (t1/2) and intrinsic clearance (Clint) were determined in a plot of […] versus time, using linear regression analysis.

[3] = target: MK-801 binding site of the N-methyl-D-aspartate receptor (NMDAR); assay: NMDAR radioligand binding with [3H]MK-801, Method B; parameters: species or system Sprague Dawley rat; settings: for Ki: MK-801 site, Method B, male Sprague Dawley rat cortex, 5.0 nM [3H]MK-801, read-out: NMDAR Ki ± SEM
Protocol: Radioligand Binding—Method B. Affinity of the test compounds for NMDAR was determined in radioligand binding experiments with [^3H]MK-801 by WuXi AppTec (Hong Kong) Limited, under the conditions described in Table 13.

[4] = target: T1, norepinephrine transporter (NET) (Homo sapiens, UniProt P23975); assay: Fluorescent substrate uptake inhibition, NET; assay type: cell-based; settings: for inhibition at 10 µM: HEK293 cells expressing NET
T1 construct: expressed in transfected cells; host or cells: HEK293
T1 sequence (P23975 whole entry, species assumed): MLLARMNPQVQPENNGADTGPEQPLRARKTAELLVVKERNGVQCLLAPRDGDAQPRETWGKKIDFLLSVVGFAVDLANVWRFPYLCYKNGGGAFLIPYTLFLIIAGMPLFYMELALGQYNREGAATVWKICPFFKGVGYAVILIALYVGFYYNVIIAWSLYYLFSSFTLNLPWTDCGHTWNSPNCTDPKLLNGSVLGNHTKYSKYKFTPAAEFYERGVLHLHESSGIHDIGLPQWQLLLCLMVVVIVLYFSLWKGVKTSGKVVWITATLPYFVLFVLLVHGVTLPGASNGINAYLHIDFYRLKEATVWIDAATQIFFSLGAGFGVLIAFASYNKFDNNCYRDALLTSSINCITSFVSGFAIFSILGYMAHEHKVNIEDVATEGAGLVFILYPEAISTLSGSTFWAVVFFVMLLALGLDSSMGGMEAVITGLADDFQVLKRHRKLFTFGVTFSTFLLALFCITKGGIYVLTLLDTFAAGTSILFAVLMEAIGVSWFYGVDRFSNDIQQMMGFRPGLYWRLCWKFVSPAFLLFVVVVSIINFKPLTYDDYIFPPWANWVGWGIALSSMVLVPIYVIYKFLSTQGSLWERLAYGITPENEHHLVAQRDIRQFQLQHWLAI

[5] = Oral bioavailability in rats, Method B; assay type: in vivo; settings: Sprague Dawley rats; for AUC(0-t) / half-life / Cmax: male, rat; for AUC(0-t) / half-life / Cmax / F: plasma, Method B; for F: 10 mg/kg
Protocol: Animals. Male Sprague Dawley rats were used in these studies. Animals were randomly assigned to treatment groups and were fasted overnight before oral dosing.
Drugs. Test compounds were dissolved in a vehicle consisting of normal saline (compounds 14R, 88R, 29rac, and 27rac) or a mixture of 5% v/v N-methyl-2-pyrrolidone, 5% v/v Solutol HS-15, and 90% v/v normal saline (compounds 84R and 84S). They were then administered intravenously (iv) or orally (po) at a dose of 10 mg/kg (calculated based on freebase) and at a volume of 5 mL/kg body weight. Compounds were tested as the racemates (indicated by “rac” nomenclature) or pure enantiomers (indicated by “R” or “S” nomenclature).
Sample Collection and Bioanalysis. Blood samples (approximately 120 μL) were collected under light isoflurane anesthesia (Surgivet®) from the retro orbital plexus at 0.08, 0.25, 0.5, 1, 2, 4, 8, and 24 h (total 8 time points/rat, 4 rats per administration route per compound). Immediately after blood collection, plasma was harvested by centrifugation at 4000 rpm for 10 min at 4° C. and samples were stored at −70±10° C. until bioanalysis. For bioanalysis, 25 μL aliquots of plasma study samples or spiked plasma calibration standards were added to individual pre-labeled micro-centrifuge tubes followed by 100 μL of an internal standard solution (glipizide, 500 ng/mL in acetonitrile) except for blanks, where 100 μL of acetonitrile was added. Samples were vortexed for 5 minutes and then centrifuged for 10 minutes at 4000 rpm at 4° C. Following centrifugation, 100 μL of each clear supernatant was transferred to a 96 well plate and analyzed with a fit-for-purpose LC-MS/MS method, with authentic samples of each analyte used for calibration and identification. In the case of compounds 14R and 88R, their metabolite 11R was also quantified in plasma samples.
Data Analysis. Pharmacokinetic parameters were estimated using the non-compartmental analysis tool of Phoenix® WinNonlin software (Ver 8.0).

[6] = 10 mg/kg iv, read-out: AUC0-last (iv) (converted)
[7] = 10 mg/kg iv, read-out: t1/2 (iv)
[8] = 10 mg/kg po, read-out: AUC0-last (po) (converted)
[9] = 10 mg/kg po, read-out: t1/2 (po)

SMILES | half-life at 1 μM [1] [h] | microsomal CLint at 1 μM [1] [µL/min/mg] | half-life at 1 μM [2] [h] | microsomal CLint at 1 μM [2] [µL/min/mg] | Ki [3] [µM] | inhibition at 10 µM [4] [%] | AUC(0-t) [5, 6] [ng·h/mL] | half-life [5, 7] [h] | Cmax ([5]; 10 mg/kg po) [ng/mL] | AUC(0-t) [5, 8] [ng·h/mL] | half-life [5, 9] [h] | F [5] [%] | IC50 [4] [µM] | NMDAR binding affinity, comparison in words ([3]; 14R vs rac-ketamine, (R)-ketamine, (S)-ketamine and 14S, R enantiomers vs S enantiomers or racemates) | metabolic stability compared to non-deuterated counterparts 14R and 14S ([2]; High Activity) | formation of the metabolite 11R compared to 14R after oral administration ([5]; 10 mg/kg po)
CN[C@]1(c2ccccc2)CCCCC1=O [Compound 14S, (S)-2-(methylamino)-2-phenylcyclohexan-1-one] | 6.18 | 2 | 0.527 | 22 | 0.69 | 1.8 | – | – | – | – | – | – | – | – | – | –
N[C@]1(c2ccccc2)CCCCC1=O [Compound 11S, (S)-2-amino-2-phenyl-cyclohexan-1-one] | 3.25 | 4 | 1.82 | 6 | 1.2 | 14.8 | – | – | – | – | – | – | – | – | – | –
Cc1ccccc1[C@]1(N)CCCCC1=O [Compound 114R, (R)-2-amino-2-(o-tolyl)cyclohexan-1-one] | – | – | – | – | > 23 | 7.7 | – | – | – | – | – | – | – | – | – | –
O=C1CCCC[C@]1(c1ccccc1)N1CCC1 [Compound 84R, (R)-2-(azetidin-1-yl)-2-phenyl-cyclohexan-1-one] | 2.75 | 4 | 0.363 | 32 | 2.3 | 29.1 | 369 | 0.62 | 15.5 | 11.9 | 0.45 | 3 | 15.4 | – | – | –
CN[C@@]1(c2ccccc2)CCCCC1=O [Compound 14R, (R)-2-(methylamino)-2-phenylcyclohexan-1-one] | 9.77 | 1 | 0.303 | 38 | 4.5 | 1.7 | 1960 | 0.63 | 235 | 237 | 0.51 | 12 | – | weaker NMDAR binding | – | –
CN[C@]1(c2cccc(F)c2)CCCCC1=O [Compound 19S, (5)-2-(3-fluorophenyl)-2-(methylamino)cyclohexan-1-one] | 1.59 | 7 | 0.313 | 37 | 2.1 | 10.3 | – | – | – | – | – | – | – | – | – | –
COCCNC1(c2ccccc2)CCCCC1=O (racemic) [Compound 29rac, 2-((2-methoxyethyl)amino)-2-phenylcyclohexan-1-one] | 2.33 | 5 | 0.293 | 39 | 4.4 | – | 1710 | 1.1 | 321 | 353 | 1.15 | 21 | – | – | – | –
N[C@@]1(c2ccccc2)CCCCC1=O [Compound 11R, (R)-2-amino-2-phenyl-cyclohexan-1-one] | 3.31 | 3 | 1.72 | 7 | 9.4 | 10.4 | – | – | – | – | – | – | – | – | – | –
[2H]C([2H])([2H])N[C@@]1(c2ccccc2)CCCCC1=O [Compound 88R, (R)-2-((methyl-d3)amino)-2-phenylcyclohexan-1-one] | 2.92 | 4 | 0.66 | 18 | 3.4 | 10.6 | 1670 | 0.99 | 393 | 335 | 0.76 | 20 | – | – | increased metabolic stability | reduced
CNC1(c2ccccc2)CCCCC1=O (racemic) [Compound 14rac, 2-(methylamino)-2-phenylcyclohexan-1-one hydrochloride] | 6.12 | 2 | – | – | – | – | – | – | – | – | – | – | – | – | – | –
O=C1CCCC[C@@]1(c1ccccc1)N1CCC1 [Compound 84S, (S)-2-(azetidin-1-yl)-2-phenyl-cyclohexan-1-one] | 2.76 | 4 | 0.505 | 23 | 1.3 | 34.9 | 482 | 0.77 | 69.8 | 77 | 0.62 | 16 | 29.7 | – | – | –
O=C1CCCCC1(c1ccccc1)N1CCCC1 (racemic) [Compound 27rac, 2-phenyl-2-(pyrrolidin-1-yl)cyclohexan-1-one] | 3.87 | 3 | – | – | 1.1 | 40.8 | 1710 | 1.62 | 197 | 563 | 2.42 | 33 | 4.9 | – | – | –
CNC1(c2ccccc2Cl)CCCCC1=O (racemic) [rac-ketamine, racemic ketamine, reference compound] | 0.613 | 19 | 0.0767 | 151 | – | – | – | – | – | – | – | – | – | – | – | –
Cc1ccccc1[C@@]1(N)CCCCC1=O [Compound 114S, (S)-2-amino-2-(o-tolyl)cyclohexan-1-one] | – | – | – | – | 2.5 | 10.4 | – | – | – | – | – | – | – | – | – | –
